Data taken from PubChem BioAssay (NCI).
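Protocol summary: plate cells (96-well), add compound at 5 concentrations, incubate 48 h, interpolate endpoints linearly. TGI marks complete inhibition of growth.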

Experiments:
Assay in all cases: NCI anticancer screen, dose series, 48 h
[1] = tested on: EKVX NSCLC
[2] = tested on: A549 NSCLC
[3] = tested on: CCRF-CEM leukemia
[4] = tested on: SW-620 colon
[5] = tested on: NCI-H23 lung
[6] = tested on: MCF7 breast
[7] = tested on: MALME-3M melanoma
[8] = tested on: COLO 205 colon
[9] = tested on: BT-549 breast
[10] = tested on: NCI-H226 lung

`O=C(OCC1CCCN2CCCCC12)c1cccnc1` (stereo not given) was tested, and the TGI [1] was greater than 100 µM, the TGI [2] was greater than 100 µM and the TGI [3] was greater than 100 µM. The TGI [4] was greater than 100 µM, the TGI [5] was greater than 100 µM and the TGI [6] was greater than 100 µM. The TGI [7] was greater than 100 µM, the TGI [8] was greater than 100 µM and the TGI [9] was greater than 100 µM. The TGI [10] was greater than 100 µM.

Work on `O=C1C(C(c2ccc([N+](=O)[O-])cc2)N2CCOCC2)=C(O)C(c2ccccc2)N1c1ccccc1` (stereo not given) yielded a TGI [1] greater than 10 µM, a TGI [2] greater than 10 µM and a TGI [3] greater than 10 µM. For the same compound, the TGI [4] was greater than 10 µM, the TGI [5] was greater than 10 µM and the TGI [6] was greater than 10 µM. It also gave a TGI [7] greater than 10 µM, a TGI [8] greater than 10 µM and a TGI [9] greater than 10 µM. For the same compound, the TGI [10] was greater than 10 µM.

In the case of `CCn1c(-c2ccc(OC)cc2)nc2c1C(=O)c1ccccc1C2=O`, the TGI [1] is reported as greater than 100 µM, the TGI [2] is reported as greater than 100 µM and the TGI [3] is reported as greater than 100 µM. For the same compound, the TGI [4] was greater than 100 µM, the TGI [5] was greater than 100 µM and the TGI [6] was greater than 100 µM. The TGI [7] was greater than 100 µM, the TGI [8] was greater than 100 µM and the TGI [9] was greater than 100 µM. The TGI [10] was greater than 100 µM.

Work on `COc1ccc(C(=O)c2c(-c3ccccc3NC(=O)C(F)(F)F)[nH]c3ccccc23)cc1` yielded a TGI [1] of 24.4 µM, a TGI [2] of 20.2 µM and a TGI [3] of 15.2 µM. It also gave a TGI [4] of 16.7 µM, a TGI [5] of 25.7 µM and a TGI [6] of 17.2 µM. The TGI [7] was 30.5 µM, the TGI [8] was 16.1 µM and the TGI [9] was 29 µM. For the same compound, the TGI [10] was 37.9 µM.

Compound `O=C(NNS(=O)(=O)c1ccc(Br)cc1)c1ccc(Cl)cc1NC(=O)C12CC3CC(CC(C3)C1)C2` has a TGI [1] of 27.3 µM, a TGI [2] of 21.4 µM and a TGI [3] of 76.5 µM. The TGI [4] was 41.4 µM, the TGI [5] was 28.2 µM and the TGI [6] was 34.1 µM. The TGI [7] was 35.3 µM, the TGI [8] was 24.5 µM and the TGI [9] was 34.8 µM. It also gave a TGI [10] of 35.6 µM.

For `COC(=O)[C@H]1[C@@H](O)[C@@]2(O)c3c(OC)cc(OC)cc3O[C@@]2(c2ccc3c(c2)OCO3)[C@@H]1c1ccccc1`, the TGI [1] was greater than 33.3 µM, the TGI [2] was 0.5 µM and the TGI [3] was greater than 50 µM. The TGI [4] was greater than 22.2 µM, the TGI [5] was 0.823 µM and the TGI [6] was 0.0618 µM. For the same compound, the TGI [7] was 9.69 µM, the TGI [8] was 0.0686 µM and the TGI [9] was greater than 50 µM. For the same compound, the TGI [10] was 3.23 µM.

`Nc1ncnc2c1ncn2C1OC(CO)C(O)C1NS(=O)(=O)c1ccccc1` (stereo not given) showed a TGI [1] greater than 100 µM, a TGI [2] greater than 100 µM and a TGI [3] greater than 100 µM. The TGI [4] was greater than 100 µM, the TGI [5] was greater than 100 µM and the TGI [6] was greater than 100 µM. The TGI [7] was greater than 100 µM, the TGI [8] was greater than 100 µM and the TGI [9] was greater than 100 µM. The TGI [10] was greater than 100 µM.

Work on `O=C(/C=C/c1ccc(OCc2ccccc2)cc1)NCc1ccc(C(=O)NCc2ccccc2)cc1` yielded a TGI [1] greater than 100 µM, a TGI [2] greater than 100 µM and a TGI [3] greater than 100 µM. It also gave a TGI [4] greater than 100 µM, a TGI [5] greater than 100 µM and a TGI [6] greater than 100 µM. For the same compound, the TGI [7] was greater than 100 µM, the TGI [8] was greater than 100 µM and the TGI [9] was greater than 100 µM. It also gave a TGI [10] greater than 100 µM.

In the case of `O=C(CNc1nccs1)Nn1cnc2ccc(S(=O)(=O)Nc3nccs3)cc2c1=O`, the TGI [1] is reported as greater than 100 µM, the TGI [2] is reported as greater than 100 µM and the TGI [3] is reported as greater than 100 µM. The TGI [4] was greater than 100 µM, the TGI [5] was greater than 100 µM and the TGI [6] was greater than 100 µM. The TGI [7] was greater than 100 µM, the TGI [8] was greater than 100 µM and the TGI [9] was greater than 100 µM. The TGI [10] was greater than 100 µM.

For `COCCOC(C)C(=O)C(O)S(=O)(=O)O` (stereo not given), the TGI [1] was greater than 100 µM, the TGI [2] was greater than 100 µM and the TGI [3] was greater than 100 µM. For the same compound, the TGI [4] was greater than 100 µM, the TGI [5] was greater than 100 µM and the TGI [6] was greater than 100 µM. It also gave a TGI [7] greater than 100 µM, a TGI [8] greater than 100 µM and a TGI [9] greater than 100 µM. For the same compound, the TGI [10] was greater than 100 µM.

Work on `NC(=S)Nc1ccc2c(c1)oc1ccccc12` yielded a TGI [1] greater than 100 µM, a TGI [2] greater than 100 µM and a TGI [3] greater than 100 µM. The TGI [4] was greater than 100 µM, the TGI [5] was greater than 100 µM and the TGI [6] was greater than 100 µM. For the same compound, the TGI [7] was greater than 100 µM, the TGI [8] was greater than 100 µM and the TGI [9] was greater than 100 µM. For the same compound, the TGI [10] was greater than 100 µM.

`Oc1cc(Cl)cc2cc(Cl)cnc12` was tested, and the TGI [1] was 10.6 µM, the TGI [2] was greater than 100 µM and the TGI [3] was 6.37 µM. The TGI [4] was greater than 100 µM, the TGI [5] was 24.4 µM and the TGI [6] was 54.6 µM. The TGI [7] was 34.9 µM, the TGI [8] was greater than 100 µM and the TGI [9] was greater than 100 µM. For the same compound, the TGI [10] was 92.2 µM.
